Source: US20050244810A1, “Taste signaling in gastrointestinal cells” (priority 2003, published 2005)

Tested on: G proteins on NCI-H716 cells
Assay: Radiometric [35S]GTPγS binding assay with NCI-H716 cell membranes
Assay type: biochemical, human
Details: for GTPγS binding to G proteins as compared to non-specific binding (NSB): NCI-H716 cell membrane fractions, 10 μl 50 mM compound in 50 μl assay, 2 hours at 25° C.; for effect of added transducin on the level of GTPγS binding to G proteins: transducin 4 μg/50 μl assay added together with compound (FIG. 4C, 5C)
Method: [^35S] GTPγS binding assays were performed in triplicate in 96-well plates [see Northup et al., J. Biol. Chem., 257, 11416-23 (1982)]. To each well the following was added and allowed to incubate for 2 hours at 25° C.: […] of a 2× buffer (5 mM HEPES pH 7.8, 1 μM GTPγS, 4 μCi/ml [^35S]GTPγS); 10 μl 50 mM dextromethorphan or doxylamine; and 15 μl ([…]) NCI-H7-16 cell membranes or supernatant (supernatant from NCI-H716 cells spun at 900 g (S1), pellets from NCI-H716 cells spun at 900 g (P1), and pellets from NCI-H716 cells spun at 100,000 g (P2)). Where indicated, transducin was also added (4 μg/50 μl assay). The total assay volume per well was 50 μl.
To separate the free [^35S] GTPγS from the [^35S] GTPγS that bound to G proteins, 40 μl of the mixture was filtered using a pre-wet Millipore Multiscreen Filtration opaque 96-well plate (0.45 μm mixed cellulose acetate, #MHABN4550). The samples were washed three times with 0.2 ml ice-cold wash buffer (0.5 M Tris-HCl, 0.04 M-magnesium chloride 6H20, 1 M sodium chloride) using a Whatman Polyfiltronics manifold under pressure from a Gast vacuum pump (#DOA-P104 AA) set to 10 PSI. The rubber manifold of the Multiscreen plates was removed and the filters were allowed to dry under warm lights and a fan for 15 minutes.
The plates were then fitted with adapter plates (Packard #6005178) and 30 μl Microscint PS (#6013631) was added to each well. Next, the plates were heat sealed with Packard TopSeal-S sealing film (#6005161) using a Packard Micromate 496 heat sealer. Radioactivity bound to the filter plates was counted in a Packard Top Count NXT scintillation counter.

Row | Compound | amount of compound needed to saturate NCI-H716 cell membranes in GTPγS binding (2 μg of NCI-H716 cell membranes (FIG. 6B)) | GTPγS binding to G proteins in the absence of transducin (NCI-H716 cell fractions, no transducin added (FIG. 4A)) | GTPγS binding to G proteins as compared to non-specific binding (NSB) | effect of added transducin on the level of GTPγS binding to G proteins
1 | COc1ccc2c(c1)[C@]13CCCC[C@@H]1[C@H](C2)N(C)CC3 [dextromethorphan] | 10 mM | increased the binding to G proteins | increase this binding | little effect
2 | CN(C)CCOC(C)(c1ccccc1)c1ccccn1 (stereo not drawn) [doxylamine] |  |  | increase this binding | significantly increased the binding to G proteins
